According to patent US6337328B1, “Bupropion metabolites and methods of use” (priority 1999, dated 2002):
Where “and” joins values, the source holds several entries; their conditions need not be identical. Identical values can stand only once.

Assays:
Assay type in all cases: biochemical
[1] = target: T1, norepinephrine (NE) reuptake, rat hypothalamus (Rattus norvegicus, UniProt Q63380); test: Inhibition of norepinephrine (NE) reuptake, [3H]NE incorporation into synaptosomes; settings: for NE reuptake Hill coefficient (nH): Hill equation curve fitting; for IC50: [3H]NE 0.2 μCi/mL, 20 min/37° C.
T1 construct: using rat hypothalamus as a tissue source; from tissue; host or cells: rat hypothalamus synaptosomes
T1 sequence (Q63380 1-617): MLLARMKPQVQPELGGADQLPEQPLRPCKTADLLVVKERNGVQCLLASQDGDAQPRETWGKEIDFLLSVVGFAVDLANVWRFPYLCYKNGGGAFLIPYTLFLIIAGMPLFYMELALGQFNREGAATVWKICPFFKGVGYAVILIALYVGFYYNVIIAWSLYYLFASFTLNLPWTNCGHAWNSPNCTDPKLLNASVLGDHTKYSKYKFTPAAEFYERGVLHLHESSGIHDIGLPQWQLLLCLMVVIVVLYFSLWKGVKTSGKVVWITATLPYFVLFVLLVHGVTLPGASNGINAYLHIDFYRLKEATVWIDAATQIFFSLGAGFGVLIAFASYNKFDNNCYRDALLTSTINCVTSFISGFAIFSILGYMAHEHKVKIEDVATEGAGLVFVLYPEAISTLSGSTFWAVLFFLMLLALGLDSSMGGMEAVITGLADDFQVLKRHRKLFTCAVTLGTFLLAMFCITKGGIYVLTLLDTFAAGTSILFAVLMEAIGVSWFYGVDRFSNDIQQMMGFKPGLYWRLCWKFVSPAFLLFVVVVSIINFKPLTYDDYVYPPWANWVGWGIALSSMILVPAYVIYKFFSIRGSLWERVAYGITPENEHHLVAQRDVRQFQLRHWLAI
Protocol: (§1) Bupropion metabolites can be screened for their ability to inhibit the reuptake of the neuronal monoamines norepiniephrine (NE), dopaminc (DA), and serotonin (5-HT). […] Other assays known to those skilled in the art may also be used.
(§2) Inhibition of norepincphrinie (NE) reuptake was determined using rat hypothalamus as a tissue source and protryptiline as a reference compound. […] Inhibition of serotonin (5-HT) reuptake was determined using rat brain as a tissue source and imipramine as a reference compound.
(§3) wherein the end products observed were formed by the incorporation of [^3H]NE, [^3H]DA, and [^3H]5-HT into synaptosomes. Radioactivity was determined with a scintillation counter (Topcount, Packard) using a liquid scintillation cocktail (Microscint 0, Packard).
(§4) Raceinic bupropion and the bupropion metabolites were first tested in each assay at 10 μM in duplicate or triplicate. […] In each experiment, the respective reference compound was tested at eight concentrations in duplicate to obtain an inhibition curve in order to validate this experiment.
(§5) IC50 values and Hill coefficients (nH) were determined for the reference compounds and the test compounds (i.e., bupropion and metabolites of bupropion) by non-linear regression analysis of their inhibition curves. These parameters were obtained by Hill equation curve fitting.

[2] = target: T2, dopamine (DA) reuptake, rat corpora striata (Rattus norvegicus, UniProt P23977); test: Inhibition of dopamine (DA) reuptake, [3H]DA incorporation into synaptosomes; settings: for DA reuptake Hill coefficient (nH): Hill equation curve fitting; for IC50: [3H]DA 0.2 μCi/mL, 15 min/37° C.
T2 construct: using rat corpora striata as a tissue source; from tissue; host or cells: rat corpora striata synaptosomes
T2 sequence (P23977 whole entry): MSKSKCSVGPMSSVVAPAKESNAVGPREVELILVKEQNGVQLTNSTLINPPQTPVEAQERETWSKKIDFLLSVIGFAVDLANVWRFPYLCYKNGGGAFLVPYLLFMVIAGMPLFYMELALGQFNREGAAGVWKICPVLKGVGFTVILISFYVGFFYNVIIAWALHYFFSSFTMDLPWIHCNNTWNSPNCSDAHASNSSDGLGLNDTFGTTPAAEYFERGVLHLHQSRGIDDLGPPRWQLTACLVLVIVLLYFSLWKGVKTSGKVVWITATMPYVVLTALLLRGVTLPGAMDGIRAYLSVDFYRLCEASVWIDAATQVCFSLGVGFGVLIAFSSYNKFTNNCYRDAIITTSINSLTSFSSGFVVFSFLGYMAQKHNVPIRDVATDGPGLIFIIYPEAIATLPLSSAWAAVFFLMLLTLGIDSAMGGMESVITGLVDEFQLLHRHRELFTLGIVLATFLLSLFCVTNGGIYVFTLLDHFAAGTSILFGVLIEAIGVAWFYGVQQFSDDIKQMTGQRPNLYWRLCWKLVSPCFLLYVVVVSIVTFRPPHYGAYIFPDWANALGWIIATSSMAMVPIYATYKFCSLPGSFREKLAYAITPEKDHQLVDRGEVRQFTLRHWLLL
Protocol: as §1, §2, §3, §4, §5

[3] = target: T3, serotonin (5-HT) reuptake, rat brain (Rattus norvegicus, UniProt P31652); test: Inhibition of serotonin (5-HT) reuptake, [3H]5-HT incorporation into synaptosomes; settings: [3H]5-HT 0.2 μCi/mL, 15 min/37° C., first tested at 10 μM
T3 construct: using rat brain as a tissue source; from tissue; host or cells: rat brain synaptosomes
T3 sequence (P31652 whole entry): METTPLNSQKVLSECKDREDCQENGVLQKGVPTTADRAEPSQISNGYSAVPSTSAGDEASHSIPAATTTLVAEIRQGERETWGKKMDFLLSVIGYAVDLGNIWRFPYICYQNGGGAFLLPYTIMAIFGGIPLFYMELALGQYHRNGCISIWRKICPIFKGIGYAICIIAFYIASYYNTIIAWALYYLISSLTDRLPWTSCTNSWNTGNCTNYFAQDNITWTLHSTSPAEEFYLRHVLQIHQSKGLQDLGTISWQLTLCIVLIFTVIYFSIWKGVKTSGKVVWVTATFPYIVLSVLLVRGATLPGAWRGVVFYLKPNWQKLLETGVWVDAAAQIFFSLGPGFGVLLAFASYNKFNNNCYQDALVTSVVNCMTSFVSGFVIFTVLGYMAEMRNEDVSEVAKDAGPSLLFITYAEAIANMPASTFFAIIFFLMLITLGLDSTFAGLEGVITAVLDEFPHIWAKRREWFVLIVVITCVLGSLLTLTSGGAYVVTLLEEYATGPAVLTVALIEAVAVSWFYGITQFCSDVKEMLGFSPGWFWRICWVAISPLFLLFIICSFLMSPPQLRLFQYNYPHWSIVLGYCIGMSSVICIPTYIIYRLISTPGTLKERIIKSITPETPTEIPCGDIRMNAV
Protocol: as §1, §2, §3, §4, §5

CC(NC(C)(C)C)C(=O)c1cccc(Cl)c1 (racemic) [BP(±), (±)1-(3-chlorophenyl)-2-[(1,1-dimethylethyl)amino]-1-propanone, reference compound]
NE reuptake Hill coefficient (nH) [1]: (>3)
IC50 [1]: ~746 nM and 746 nM
DA reuptake Hill coefficient (nH) [2]: (0.9)
IC50 [2]: ~294 nM and 294 nM

CC1NC(C)(C)COC1(O)c1cccc(Cl)c1 (racemic) [HBP(RS, RS), (RS,RS)-2-(3-chlorophenyl)-2-hydroxy-3,5,5-trimethyl-morpholinol]
NE reuptake Hill coefficient (nH) [1]: (1.1)
IC50 [1]: 756 nM

C[C@@H]1NC(C)(C)CO[C@@]1(O)c1cccc(Cl)c1 [HBP(S, S)]
NE reuptake Hill coefficient (nH) [1]: (0.8)
IC50 [1]: 229 nM
Inhibition of dopamine reuptake (in words) [2]: does not significantly inhibit dopamine reuptake
DA reuptake Hill coefficient (nH) [2]: (1.0)
IC50 [2]: 1400 nM
IC50 ([2]; listed as (S,S)-hydroxybupropion): ~1400 nM
Inhibition of 5-HT reuptake (in words) [3]: does not measurably inhibit serotonin uptake

CNCCCC1c2ccccc2C=Cc2ccccc21 [protriptyline]
NE reuptake Hill coefficient (nH) [1]: 2.6 and 1.4
